One substance from patent publication US20090238766A1, “BIOLUMINESCENT CONSTRUCT” (ABBOTT LABORATORIES, priority 2008, published 2009) can be followed below.

In the experiment the test system is caspase-3/7. Nature of the experiment: In vivo bioluminescent imaging of VivoGlo Caspase-3/7 substrate and caspase-3/7 inactive substrate(s). The settings on record: mice bearing tumors stably expressing luciferase, treated with apoptosis-inducing cytotoxic therapy (e.g. docetaxel); substrate 62.5 mg/mL intraperitoneally; detected 5-30 minutes post injection. How it is done:
In luciferase-expressing cells undergoing apoptosis, caspase-3/7 will cleave the DEVD peptide from the VivoGlo™ Caspase-3/7 substrate, allowing it to be a substrate for luciferase photon production. […] The photon emission will be detected with a photodetector device at timepoints from 5-30 minutes post injection and quantified.

As to “Z-DEVD-aminoluciferin [VivoGlo Caspase-3/7]”, the “bioluminescent signal (photon emission)” value was “significant bioluminescent signal”.
